Results reported in publication PMC7265341, “Quantifying CDK inhibitor selectivity in live cells” (Nature Communications, 2020).
pIC50, pKd: −log10 of the molar value. Read-outs that look alike come from different tables or passages of the source.

Key:
CDK1/Cyclin E1 = CDK1/Cyclin E1 (Homo sapiens, UniProt P06493); test: NanoBRET live-cell target engagement, CDK1-NanoLuc/Cyclin E1 in HEK-293; assay type: binding; conditions: CDK1/E1, read-out: Inhibition at 10µM (%)
CDK2/Cyclin E1 = CDK2/Cyclin E1 (Homo sapiens, UniProt P24941); test: NanoBRET live-cell target engagement, CDK2-NanoLuc/Cyclin E1 in HEK-293; assay type: binding; conditions: CDK2/E1, read-out: Inhibition at 10µM (%)
CDK3/Cyclin E1 = CDK3/Cyclin E1 (Homo sapiens, UniProt Q00526); test: NanoBRET live-cell target engagement, CDK3-NanoLuc/Cyclin E1 in HEK-293; assay type: binding; conditions: read-out: Inhibition at 10µM (%), CDK3/E1
CDK4/Cyclin D1 = CDK4/Cyclin D1 (Homo sapiens, UniProt P11802); test: NanoBRET live-cell target engagement, NanoLuc-CDK4/Cyclin D1 in HEK-293; assay type: binding; conditions: CDK4/D1, read-out: Inhibition at 10µM (%)
CDK5/CDK5R1 = CDK5/CDK5R1 (Homo sapiens, UniProt Q00535); test: NanoBRET live-cell target engagement, CDK5-NanoLuc/CDK5R1 in HEK-293; assay type: binding; conditions: CDK5/CDK5R1, read-out: Inhibition at 10µM (%)
Sequence of CDK5/CDK5R1 (Q00535 whole entry): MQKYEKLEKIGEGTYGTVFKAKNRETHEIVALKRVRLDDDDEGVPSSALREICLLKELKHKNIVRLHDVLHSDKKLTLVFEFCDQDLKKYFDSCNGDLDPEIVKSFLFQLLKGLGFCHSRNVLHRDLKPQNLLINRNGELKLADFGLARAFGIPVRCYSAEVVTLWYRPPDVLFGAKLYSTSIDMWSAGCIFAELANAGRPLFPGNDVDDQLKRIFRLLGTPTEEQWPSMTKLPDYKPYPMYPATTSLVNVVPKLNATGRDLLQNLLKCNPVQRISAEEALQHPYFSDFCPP
Sequence of CDK5/CDK5R1 (Q15078 whole entry partner): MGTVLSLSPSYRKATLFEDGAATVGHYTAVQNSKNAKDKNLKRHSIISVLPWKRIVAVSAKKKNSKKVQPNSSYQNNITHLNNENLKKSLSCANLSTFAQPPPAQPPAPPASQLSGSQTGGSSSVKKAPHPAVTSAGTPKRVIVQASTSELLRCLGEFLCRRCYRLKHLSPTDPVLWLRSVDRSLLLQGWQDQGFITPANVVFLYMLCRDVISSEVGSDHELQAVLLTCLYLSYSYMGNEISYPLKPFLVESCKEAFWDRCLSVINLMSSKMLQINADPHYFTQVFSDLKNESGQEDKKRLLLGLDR

CDK6/Cyclin D1 = CDK6/Cyclin D1 (Homo sapiens, UniProt Q00534); test: NanoBRET live-cell target engagement, NanoLuc-CDK6/Cyclin D1 in HEK-293; assay type: binding; conditions: CDK6/D1, read-out: Inhibition at 10µM (%)
Sequence of CDK6/Cyclin D1 (Q00534 whole entry): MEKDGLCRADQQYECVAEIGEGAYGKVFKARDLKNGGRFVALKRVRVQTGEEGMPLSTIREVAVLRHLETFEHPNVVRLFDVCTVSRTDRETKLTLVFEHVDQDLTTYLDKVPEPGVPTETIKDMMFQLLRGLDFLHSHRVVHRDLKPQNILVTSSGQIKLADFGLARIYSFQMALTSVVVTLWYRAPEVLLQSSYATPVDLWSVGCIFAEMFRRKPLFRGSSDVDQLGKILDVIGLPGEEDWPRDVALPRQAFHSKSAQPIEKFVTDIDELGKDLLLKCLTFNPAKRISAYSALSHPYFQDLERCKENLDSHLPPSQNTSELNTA
Sequence of CDK6/Cyclin D1 (P24385 whole entry partner): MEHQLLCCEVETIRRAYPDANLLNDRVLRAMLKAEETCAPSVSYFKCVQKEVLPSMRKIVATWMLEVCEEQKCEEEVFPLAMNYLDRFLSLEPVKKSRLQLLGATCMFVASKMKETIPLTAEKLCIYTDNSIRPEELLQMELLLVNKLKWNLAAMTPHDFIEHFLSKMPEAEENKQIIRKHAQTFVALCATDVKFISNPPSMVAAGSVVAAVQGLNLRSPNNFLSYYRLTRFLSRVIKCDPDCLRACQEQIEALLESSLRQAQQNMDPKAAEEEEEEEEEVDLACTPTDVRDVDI

CDK8/Cyclin C = CDK8/Cyclin C (Homo sapiens, UniProt P49336); test: NanoBRET live-cell target engagement, NanoLuc-CDK8/Cyclin C in HEK-293; assay type: binding; conditions: for IC50: IC50 (nM); for inhibition at 10 µM: read-out: Inhibition at 10µM (%), CDK8/C
Sequence of CDK8/Cyclin C (P49336 whole entry): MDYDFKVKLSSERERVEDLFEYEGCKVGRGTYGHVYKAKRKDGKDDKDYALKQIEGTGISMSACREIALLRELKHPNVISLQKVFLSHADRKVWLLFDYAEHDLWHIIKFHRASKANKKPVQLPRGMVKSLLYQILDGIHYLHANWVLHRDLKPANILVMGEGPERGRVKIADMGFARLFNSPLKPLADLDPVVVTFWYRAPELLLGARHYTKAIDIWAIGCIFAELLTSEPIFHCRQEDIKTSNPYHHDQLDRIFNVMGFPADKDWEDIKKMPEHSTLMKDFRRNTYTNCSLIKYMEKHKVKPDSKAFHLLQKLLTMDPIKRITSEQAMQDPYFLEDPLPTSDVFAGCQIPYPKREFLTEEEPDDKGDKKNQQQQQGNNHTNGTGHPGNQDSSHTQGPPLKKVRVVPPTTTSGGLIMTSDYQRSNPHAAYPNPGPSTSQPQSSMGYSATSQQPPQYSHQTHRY
Sequence of CDK8/Cyclin C (P24863 whole entry partner): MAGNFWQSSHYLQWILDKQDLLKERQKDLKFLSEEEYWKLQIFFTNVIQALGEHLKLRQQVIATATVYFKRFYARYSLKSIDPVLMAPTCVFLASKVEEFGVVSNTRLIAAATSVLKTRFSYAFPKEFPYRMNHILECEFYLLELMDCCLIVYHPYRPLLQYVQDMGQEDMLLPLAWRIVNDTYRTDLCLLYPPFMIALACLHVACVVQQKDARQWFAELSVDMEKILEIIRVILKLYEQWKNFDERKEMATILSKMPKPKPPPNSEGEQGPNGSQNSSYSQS

CDK9/Cyclin K = CDK9/Cyclin K (Homo sapiens, UniProt P50750); test: NanoBRET live-cell target engagement, NanoLuc-CDK9/Cyclin K in HEK-293; assay type: binding; conditions: CDK9/K, read-out: Inhibition at 10µM (%)
CDK11A/Cyclin L2 = target: T1, CDK11A/Cyclin L2 (Homo sapiens, UniProt Q9UQ88); test: NanoBRET live-cell target engagement, CDK11A-NanoLuc/Cyclin L2 in HEK-293; assay type: binding; conditions: CDK11a/L2, read-out: Inhibition at 10µM (%)
T1 sequence (Q9UQ88 1-783): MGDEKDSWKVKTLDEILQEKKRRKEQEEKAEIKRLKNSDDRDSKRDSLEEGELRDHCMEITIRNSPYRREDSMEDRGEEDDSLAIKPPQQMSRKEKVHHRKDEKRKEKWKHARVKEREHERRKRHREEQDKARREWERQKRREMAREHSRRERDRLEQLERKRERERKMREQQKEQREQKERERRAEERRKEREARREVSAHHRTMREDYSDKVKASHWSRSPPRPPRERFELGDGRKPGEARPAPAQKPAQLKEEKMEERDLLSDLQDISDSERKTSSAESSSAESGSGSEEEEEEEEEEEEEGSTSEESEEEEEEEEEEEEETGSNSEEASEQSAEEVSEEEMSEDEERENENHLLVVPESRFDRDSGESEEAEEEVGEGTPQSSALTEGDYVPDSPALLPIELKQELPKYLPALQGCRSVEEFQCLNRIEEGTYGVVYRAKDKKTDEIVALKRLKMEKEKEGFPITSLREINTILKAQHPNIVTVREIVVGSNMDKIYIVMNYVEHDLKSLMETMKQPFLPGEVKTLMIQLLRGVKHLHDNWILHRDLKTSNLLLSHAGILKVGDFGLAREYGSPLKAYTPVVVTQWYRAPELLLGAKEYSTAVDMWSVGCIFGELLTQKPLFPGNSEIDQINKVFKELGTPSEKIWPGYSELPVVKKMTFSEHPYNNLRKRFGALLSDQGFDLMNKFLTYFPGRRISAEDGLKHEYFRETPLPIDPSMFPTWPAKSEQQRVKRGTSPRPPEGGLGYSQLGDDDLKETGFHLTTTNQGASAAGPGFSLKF

CDK11B/Cyclin L2 = CDK11B/Cyclin L2 (Homo sapiens, UniProt P21127); test: NanoBRET live-cell target engagement, CDK11B-NanoLuc/Cyclin L2 in HEK-293; assay type: binding; conditions: CDK11b/L2, read-out: Inhibition at 10µM (%)
Sequence of CDK11B/Cyclin L2 (P21127 1-782 isoform P21127-2): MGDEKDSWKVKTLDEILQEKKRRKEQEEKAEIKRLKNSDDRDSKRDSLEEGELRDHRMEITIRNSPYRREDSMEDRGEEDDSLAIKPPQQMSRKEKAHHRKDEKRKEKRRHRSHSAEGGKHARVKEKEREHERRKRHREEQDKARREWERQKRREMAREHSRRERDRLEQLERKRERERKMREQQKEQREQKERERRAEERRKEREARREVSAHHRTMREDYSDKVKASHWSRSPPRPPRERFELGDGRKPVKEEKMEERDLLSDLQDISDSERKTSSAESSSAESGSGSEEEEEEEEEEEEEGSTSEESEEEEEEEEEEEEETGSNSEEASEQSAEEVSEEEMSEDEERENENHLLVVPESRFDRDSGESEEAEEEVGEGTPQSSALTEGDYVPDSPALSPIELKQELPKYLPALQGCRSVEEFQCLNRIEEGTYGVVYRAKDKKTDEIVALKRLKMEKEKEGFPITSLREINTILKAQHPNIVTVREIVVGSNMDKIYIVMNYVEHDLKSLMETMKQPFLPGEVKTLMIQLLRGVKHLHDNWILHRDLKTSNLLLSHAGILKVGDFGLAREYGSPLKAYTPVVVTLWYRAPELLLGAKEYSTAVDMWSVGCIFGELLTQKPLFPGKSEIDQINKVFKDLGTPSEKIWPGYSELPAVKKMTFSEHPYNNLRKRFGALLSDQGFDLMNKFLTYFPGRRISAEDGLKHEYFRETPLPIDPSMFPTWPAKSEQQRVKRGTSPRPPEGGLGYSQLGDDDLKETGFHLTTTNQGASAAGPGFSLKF

CDK12/Cyclin K = CDK12/Cyclin K (Homo sapiens, UniProt Q9NYV4); test: NanoBRET live-cell target engagement, CDK12-NanoLuc/Cyclin K in HEK-293; assay type: binding; conditions: CDK12/K, read-out: Inhibition at 10µM (%)
CDK13/Cyclin K = CDK13/Cyclin K (Homo sapiens, UniProt Q14004); test: NanoBRET live-cell target engagement, CDK13-NanoLuc/Cyclin K in HEK-293; assay type: binding; conditions: CDK13/K, read-out: Inhibition at 10µM (%)
CDK15/Cyclin Y = CDK15/Cyclin Y (Homo sapiens, UniProt Q96Q40); test: NanoBRET live-cell target engagement, NanoLuc-CDK15/Cyclin Y in HEK-293; assay type: binding; conditions: CDK15/Y, read-out: Inhibition at 10µM (%)
Sequence of CDK15/Cyclin Y (Q96Q40 whole entry): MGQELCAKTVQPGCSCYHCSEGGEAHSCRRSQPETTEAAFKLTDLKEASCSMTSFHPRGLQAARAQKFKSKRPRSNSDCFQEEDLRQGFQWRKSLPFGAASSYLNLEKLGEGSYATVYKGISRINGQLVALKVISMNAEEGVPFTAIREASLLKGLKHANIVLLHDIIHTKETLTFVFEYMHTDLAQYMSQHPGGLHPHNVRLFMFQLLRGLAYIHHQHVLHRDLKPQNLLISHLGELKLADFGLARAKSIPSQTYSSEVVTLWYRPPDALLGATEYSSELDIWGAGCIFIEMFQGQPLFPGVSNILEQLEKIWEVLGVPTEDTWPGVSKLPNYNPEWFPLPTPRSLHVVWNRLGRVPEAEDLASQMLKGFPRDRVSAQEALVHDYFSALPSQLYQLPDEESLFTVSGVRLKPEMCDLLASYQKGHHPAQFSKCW
Sequence of CDK15/Cyclin Y (Q8ND76 whole entry partner): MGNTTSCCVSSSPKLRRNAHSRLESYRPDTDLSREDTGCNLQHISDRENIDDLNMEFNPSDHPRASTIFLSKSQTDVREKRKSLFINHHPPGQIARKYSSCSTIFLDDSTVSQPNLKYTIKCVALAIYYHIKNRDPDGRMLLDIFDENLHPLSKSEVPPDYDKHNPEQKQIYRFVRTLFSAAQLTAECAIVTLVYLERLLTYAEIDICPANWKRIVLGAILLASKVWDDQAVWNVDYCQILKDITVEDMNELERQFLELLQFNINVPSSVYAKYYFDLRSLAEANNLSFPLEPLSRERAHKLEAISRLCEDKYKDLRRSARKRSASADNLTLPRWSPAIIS

CDK16/Cyclin Y = CDK16/Cyclin Y (Homo sapiens, UniProt Q00536); test: NanoBRET live-cell target engagement, CDK16-NanoLuc/Cyclin Y in HEK-293; assay type: binding; conditions: CDK16/Y, read-out: Inhibition at 10µM (%)
CDK17/Cyclin Y = CDK17/Cyclin Y (Homo sapiens, UniProt Q00537); test: NanoBRET live-cell target engagement, CDK17-NanoLuc/Cyclin Y in HEK-293; assay type: binding; conditions: CDK17/Y, read-out: Inhibition at 10µM (%)
CDK18/Cyclin Y = CDK18/Cyclin Y (Homo sapiens, UniProt Q07002); test: NanoBRET live-cell target engagement, CDK18-NanoLuc/Cyclin Y in HEK-293; assay type: binding; conditions: CDK18/Y, read-out: Inhibition at 10µM (%)
Sequence of CDK18/Cyclin Y (Q07002 whole entry): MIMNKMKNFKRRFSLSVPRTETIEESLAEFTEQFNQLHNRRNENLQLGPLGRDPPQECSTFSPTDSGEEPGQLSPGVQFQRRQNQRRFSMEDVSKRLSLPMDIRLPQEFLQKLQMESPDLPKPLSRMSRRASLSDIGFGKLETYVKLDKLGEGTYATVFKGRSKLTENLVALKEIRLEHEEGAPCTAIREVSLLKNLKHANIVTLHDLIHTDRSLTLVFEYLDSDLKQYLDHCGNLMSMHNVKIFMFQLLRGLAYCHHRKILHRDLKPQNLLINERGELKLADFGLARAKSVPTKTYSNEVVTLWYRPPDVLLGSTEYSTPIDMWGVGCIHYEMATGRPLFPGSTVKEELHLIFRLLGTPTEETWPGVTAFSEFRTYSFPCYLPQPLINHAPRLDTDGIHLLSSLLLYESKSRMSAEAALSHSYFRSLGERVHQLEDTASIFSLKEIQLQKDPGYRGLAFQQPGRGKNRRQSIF
Sequence of CDK18/Cyclin Y (Q8ND76 whole entry partner): as the sequence (Q8ND76 whole entry partner) above

CDK20/Cyclin H = CDK20/Cyclin H (Homo sapiens, UniProt Q8IZL9); test: NanoBRET live-cell target engagement, NanoLuc-CDK20/Cyclin H in HEK-293; assay type: binding; conditions: CDK20/H, read-out: Inhibition at 10µM (%)
CDK19/Cyclin C = CDK19/Cyclin C (Homo sapiens, UniProt Q9BWU1); test: NanoBRET live-cell target engagement, NanoLuc-CDK19/Cyclin C in HEK-293; conditions: for IC50: IC50 (nM), CDK19/C; for inhibition at 10 µM: read-out: Inhibition at 10µM (%), CDK19/C
CDK10/Cyclin L2 = CDK10/Cyclin L2 (Homo sapiens, UniProt Q15131); test: NanoBRET live-cell target engagement, CDK10-NanoLuc/Cyclin L2 in HEK-293; conditions: read-out: Inhibition at 10µM (%), CDK10/L2

Sequence of CDK1/Cyclin E1 (P06493 whole entry): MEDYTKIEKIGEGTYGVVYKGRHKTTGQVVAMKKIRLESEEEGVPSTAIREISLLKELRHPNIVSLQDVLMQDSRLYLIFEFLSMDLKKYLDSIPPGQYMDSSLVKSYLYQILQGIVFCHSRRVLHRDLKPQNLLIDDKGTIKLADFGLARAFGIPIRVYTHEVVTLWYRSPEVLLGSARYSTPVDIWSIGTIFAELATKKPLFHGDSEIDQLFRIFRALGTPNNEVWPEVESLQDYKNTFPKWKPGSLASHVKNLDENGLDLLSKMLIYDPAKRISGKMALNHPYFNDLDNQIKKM
Sequence of CDK1/Cyclin E1 (P24864 whole entry partner): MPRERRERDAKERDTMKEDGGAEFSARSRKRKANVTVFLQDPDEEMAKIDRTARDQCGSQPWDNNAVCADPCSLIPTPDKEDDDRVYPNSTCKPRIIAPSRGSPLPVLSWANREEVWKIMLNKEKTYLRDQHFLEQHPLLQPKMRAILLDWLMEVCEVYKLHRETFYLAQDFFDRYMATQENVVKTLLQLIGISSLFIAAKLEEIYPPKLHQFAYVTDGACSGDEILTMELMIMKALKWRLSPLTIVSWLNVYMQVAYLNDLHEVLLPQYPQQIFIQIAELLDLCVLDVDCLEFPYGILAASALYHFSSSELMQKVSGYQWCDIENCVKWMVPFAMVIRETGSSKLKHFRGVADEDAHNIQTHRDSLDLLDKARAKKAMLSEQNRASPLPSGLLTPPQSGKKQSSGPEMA

`Cn1cc(-c2ccc(-c3cncc(Cl)c3N3CCC4(CCNC4=O)CC3)cc2)cn1` [CCT251545] showed an inhibition at 10 µM (CDK1/Cyclin E1; average) of 15.4%, an inhibition at 10 µM (CDK1/Cyclin E1; experiment 1) of 21.3% and an inhibition at 10 µM (CDK1/Cyclin E1; experiment 2) of 9.4%. It also gave an inhibition at 10 µM (CDK2/Cyclin E1; average) of -6.3%, an inhibition at 10 µM (CDK2/Cyclin E1; experiment 1) of -6.4% and an inhibition at 10 µM (CDK2/Cyclin E1; experiment 2) of -6.1%. The inhibition at 10 µM (CDK3/Cyclin E1; average) was -2.7%, the inhibition at 10 µM (CDK3/Cyclin E1; experiment 1) was -4.5% and the inhibition at 10 µM (CDK3/Cyclin E1; experiment 2) was -1%. The inhibition at 10 µM (CDK4/Cyclin D1; average) was 6.9%, the inhibition at 10 µM (CDK4/Cyclin D1; experiment 1) was -6.1% and the inhibition at 10 µM (CDK4/Cyclin D1; experiment 2) was 19.9%. The inhibition at 10 µM (CDK5/CDK5R1; average) was 16.2%, the inhibition at 10 µM (CDK5/CDK5R1; experiment 1) was 23.2% and the inhibition at 10 µM (CDK5/CDK5R1; experiment 2) was 9.2%. It also gave an inhibition at 10 µM (CDK6/Cyclin D1; average) of -5%, an inhibition at 10 µM (CDK6/Cyclin D1; experiment 1) of -11.6% and an inhibition at 10 µM (CDK6/Cyclin D1; experiment 2) of 1.5%. The pKd (CDK8/Cyclin C) was at least 8.00, the IC50 (CDK8/Cyclin C; CDK8/C, experiment 1) was 2 nM and the IC50 (CDK8/Cyclin C; CDK8/C, experiment 2) was 2 nM. The IC50 (CDK8/Cyclin C; CDK8/C, experiment 3) was 9 nM, the pIC50 (CDK8/Cyclin C; IC50 for CDK/cyclin complexes, CDK8/C, live HEK-293, 2 h, mean ± S.E.M. (n=3) or mean (n=2)) was 8.22 and the inhibition at 10 µM (CDK8/Cyclin C; average) was 97.8%. It also gave an inhibition at 10 µM (CDK8/Cyclin C; experiment 1) of 98.8%, an inhibition at 10 µM (CDK8/Cyclin C; experiment 2) of 96.9% and an inhibition at 10 µM (CDK9/Cyclin K; average) of 15.8%. It also gave an inhibition at 10 µM (CDK9/Cyclin K; experiment 1) of 9.2%, an inhibition at 10 µM (CDK9/Cyclin K; experiment 2) of 22.5% and an inhibition at 10 µM (CDK11A/Cyclin L2; average) of 4.8%. For the same molecule, the inhibition at 10 µM (CDK11A/Cyclin L2; experiment 1) was -0.8%, the inhibition at 10 µM (CDK11A/Cyclin L2; experiment 2) was 10.3% and the inhibition at 10 µM (CDK11B/Cyclin L2; average) was -1%. For the same molecule, the inhibition at 10 µM (CDK11B/Cyclin L2; experiment 1) was -3.6%, the inhibition at 10 µM (CDK11B/Cyclin L2; experiment 2) was 1.7% and the inhibition at 10 µM (CDK12/Cyclin K; average) was -2.2%. For the same molecule, the inhibition at 10 µM (CDK12/Cyclin K; experiment 1) was 2.5%, the inhibition at 10 µM (CDK12/Cyclin K; experiment 2) was -6.8% and the inhibition at 10 µM (CDK13/Cyclin K; average) was 7.2%. It also gave an inhibition at 10 µM (CDK13/Cyclin K; experiment 1) of 7.3%, an inhibition at 10 µM (CDK13/Cyclin K; experiment 2) of 7.1% and an inhibition at 10 µM (CDK15/Cyclin Y; average) of 1.4%. The inhibition at 10 µM (CDK15/Cyclin Y; experiment 1) was 2.4%, the inhibition at 10 µM (CDK15/Cyclin Y; experiment 2) was 0.46% and the inhibition at 10 µM (CDK16/Cyclin Y; experiment 1) was 1.8%. It also gave an inhibition at 10 µM (CDK16/Cyclin Y; experiment 2) of -12.1%, an inhibition at 10 µM (CDK17/Cyclin Y; average) of 1.3% and an inhibition at 10 µM (CDK17/Cyclin Y; experiment 1) of 5.9%. It also gave an inhibition at 10 µM (CDK17/Cyclin Y; experiment 2) of -3.2%, an inhibition at 10 µM (CDK18/Cyclin Y; average) of 10.8% and an inhibition at 10 µM (CDK18/Cyclin Y; experiment 1) of 2.3%. It also gave an inhibition at 10 µM (CDK18/Cyclin Y; experiment 2) of 19.2%, an inhibition at 10 µM (CDK20/Cyclin H; experiment 1) of 3.3% and an inhibition at 10 µM (CDK20/Cyclin H; experiment 2) of 5.3%. It also gave a pKd (CDK19/Cyclin C) of at least 8.00, an IC50 (CDK19/Cyclin C; experiment 2) of 1.5 nM and an IC50 (CDK19/Cyclin C; experiment 3) of 10 nM. It also gave an inhibition at 10 µM (CDK19/Cyclin C; average) of 94%, an inhibition at 10 µM (CDK19/Cyclin C; experiment 1) of 97.3% and an inhibition at 10 µM (CDK19/Cyclin C; experiment 2) of 90.6%. For the same molecule, the inhibition at 10 µM (CDK10/Cyclin L2; average) was 6.5%, the inhibition at 10 µM (CDK10/Cyclin L2; experiment 1) was -3.1% and the inhibition at 10 µM (CDK10/Cyclin L2; experiment 2) was 16.1%.
